{"source": "patent US4914245A", "about": "“Culpin” (E. R. Squibb & Sons, Inc., priority 1989, dated 1990)", "format_in_all_cases": "cell-based", "key": {"Escherichia coli": {"test_system": "Escherichia coli", "experiment": "agar dilution assay (MIC) vs Escherichia coli SC 10909", "details": "Escherichia coli S.C. No. 10909; K-10 agar; 10^4 CFU; 37° C., 18 hours", "procedure": "(§1) The following methodology was used to determine the minimum inhibitory concentration (hereinafter referred to as MIC) of the compounds of this invention against bacteria. The test organisms were grown in 20 ml of Antibiotic Assay Broth (Difco) by inoculating the broth (in tubes) with a loopful of the organism from a BHI (Difco) agar slant. The inoculated tubes were incubated at 37° C. for 18 to 24 hours. These cultures were assumed to contain 10^9 colony forming units (CFU) per ml. The cultures were diluted 1:100 to give a final inoculum level of 10^7 CFU; dilutions were made with Yeast Beef Broth (Difco). The test compounds were dissolved in an appropriate diluent at a concentration of 1,000 μg/ml. Two-fold dilutions were made in Yeast Beef Broth (Difco), resulting in a range from 1000 μg/ml to 0.5 μg/ml. A 1.5 ml portion of each dilution was placed into individual petri dishes to which 13.5 ml of K-10 agar was added. The composition of K-10 agar is The final drug concentration in the agar ranged from 100 μg/ml to 0.05 μg/ml. Organism growth control plates containing agar only were prepared and inoculated before and after the test plates. […] The plates were incubated at 37° C. for 18 hours and the MICs determined. […]"}, "Candida tropicalis [1]": {"test_system": "Candida tropicalis", "experiment": "agar dilution assay (MIC) vs Candida tropicalis SC 2963", "details": "Candida tropicalis S.C. No. 2963; F-4 agar; 10^3 CFU", "procedure": "(§2) The following methodology was used to determine the minimum inhibitory concentration (hereinafter referred to as MIC) of the compounds of this invention against bacteria. The test organisms were grown in 20 ml of Antibiotic Assay Broth (Difco) by inoculating the broth (in tubes) with a loopful of the organism from a BHI (Difco) agar slant. The inoculated tubes were incubated at 37° C. for 18 to 24 hours. These cultures were assumed to contain 10^9 colony forming units (CFU) per ml. The cultures were diluted 1:100 to give a final inoculum level of 10^7 CFU; dilutions were made with Yeast Beef Broth (Difco). The test compounds were dissolved in an appropriate diluent at a concentration of 1,000 μg/ml. Two-fold dilutions were made in Yeast Beef Broth (Difco), resulting in a range from 1000 μg/ml to 0.5 μg/ml. A 1.5 ml portion of each dilution was placed into individual petri dishes to which 13.5 ml of K-10 agar was added. The composition of K-10 agar is\n(§3) The final drug concentration in the agar ranged from 100 μg/ml to 0.05 μg/ml. Organism growth control plates containing agar only were prepared and inoculated before and after the test plates. […]\n(§4) The plates were incubated at 37° C. for 18 hours and the MICs determined. […]"}, "Streptococcus agalactiae": {"test_system": "Streptococcus agalactiae", "experiment": "agar dilution assay (MIC) vs Streptococcus agalactiae SC 9287", "details": "Streptococcus agalactiae S.C. No. 9287; K-10 agar; 10^4 CFU; 37° C., 18 hours", "procedure": "as §1"}, "Micrococcus luteus": {"test_system": "Micrococcus luteus", "experiment": "agar dilution assay (MIC) vs Micrococcus luteus SC 2495", "details": "Micrococcus luteus S.C. No. 2495; K-10 agar; 10^4 CFU; 37° C., 18 hours", "procedure": "as §1"}, "Candida tropicalis [2]": {"test_system": "Candida tropicalis", "experiment": "agar dilution assay (MIC) vs Candida tropicalis SC 9861", "details": "Candida tropicalis S.C. No. 9861; F-4 agar; 10^3 CFU", "procedure": "as §2, §3, §4"}, "Mycobacterium fortuitum": {"test_system": "Mycobacterium fortuitum", "experiment": "agar dilution assay (MIC) vs Mycobacterium fortuitum SC 8571", "details": "Mycolicibacterium fortuitum; Mycobacterium fortuitum S.C. No. 8571; K-10 agar; 10^4 CFU; 37° C., 18 hours", "procedure": "as §1"}}}
{"smiles": "C=C(C)C#Cc1cc(O)c(CC=C(C)C)cc1O", "note": "[culpin, 2-(3-methyl-2-butenyl)-5-(3-methyl-3-buten-1-ynyl)-1,4-benzenediol]", "values": [{"measurement": "MIC", "setting": "Escherichia coli", "result": 100, "unit": "mg/L"}, {"measurement": "MIC", "setting": "Candida tropicalis [1]", "result": 50, "unit": "mg/L"}, {"measurement": "MIC", "setting": "Streptococcus agalactiae", "result": 50, "unit": "mg/L"}, {"measurement": "MIC", "setting": "Micrococcus luteus", "result": 100, "unit": "mg/L"}, {"measurement": "MIC", "setting": "Candida tropicalis [2]", "result": 50, "unit": "mg/L"}, {"measurement": "MIC", "setting": "Mycobacterium fortuitum", "result": 50, "unit": "mg/L"}]}
